The results in this text go back to PubChem BioAssay AID400 (SGCOxCompounds, 2006).

The inhibition is the share of the control response that was lost under treatment.

The target of one assay is Tyrosine-protein phosphatase non-receptor type 5 (Homo sapiens) (UniProt P54829). As to the kind of experiment: PTPN5 (STEP) phosphatase inhibitors, biochemical, human, DiFMUP fluorescence (AID 400). Particulars: recombinant PTPN5, DiFMUP fluorescence phosphatase assay; at 50 µM; enzyme 6.5 ng/mL; DTT 5 mM; active compounds read high.
Chain of Tyrosine-protein phosphatase non-receptor type 5 (Homo sapiens) (P54829 whole entry, looked up): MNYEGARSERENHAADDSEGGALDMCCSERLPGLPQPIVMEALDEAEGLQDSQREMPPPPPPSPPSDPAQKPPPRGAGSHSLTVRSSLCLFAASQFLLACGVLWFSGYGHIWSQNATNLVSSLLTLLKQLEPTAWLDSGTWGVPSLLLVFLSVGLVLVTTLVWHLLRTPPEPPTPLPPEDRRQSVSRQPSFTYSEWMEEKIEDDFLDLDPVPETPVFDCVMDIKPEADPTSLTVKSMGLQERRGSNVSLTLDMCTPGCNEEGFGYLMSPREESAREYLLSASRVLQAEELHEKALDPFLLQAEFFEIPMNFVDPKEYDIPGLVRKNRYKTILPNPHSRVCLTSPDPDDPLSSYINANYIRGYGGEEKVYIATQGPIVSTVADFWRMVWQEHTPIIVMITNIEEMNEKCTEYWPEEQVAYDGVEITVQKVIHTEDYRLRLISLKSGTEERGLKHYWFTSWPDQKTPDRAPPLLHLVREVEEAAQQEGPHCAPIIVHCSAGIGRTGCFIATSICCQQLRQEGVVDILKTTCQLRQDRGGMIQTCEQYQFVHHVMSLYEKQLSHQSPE
Turning to `CC(=O)c1ccc2c(c1)C1C=CCC1C(C(=O)O)N2` (stereo not given), the inhibition was 46%.

In the case of `O=C1NC(=S)S/C1=C\C=C\c1ccc([N+](=O)[O-])o1`, the inhibition is 88%.

As to `COc1cc[n+](C(=O)N(C)C)cc1`, the inhibition was 14%.

For `NC1=NC(=O)/C(=C/C=C/c2ccc([N+](=O)[O-])o2)S1`, the inhibition is 75.5%.

In the case of `Oc1c(Cl)c(Cl)c(O)c2nsnc12`, the inhibition is 33%.

On to `O=C(O)C1Nc2c(O)cccc2C2C=CCC12` (stereo not given), for which the inhibition is 17%.

Regarding `CC1(C)OC(=O)C(=Cc2ccc(Br)o2)C(=O)O1`, the inhibition was 7%.

Staying with this assay, now noted: recombinant PTPN5, DiFMUP fluorescence phosphatase assay; at 50 µM; enzyme 20 ng/mL; DTT 1 mM; active compounds read high.
On to `Cn1nc(-c2ccccc2)nc2c(=O)n(C)c(=O)nc1-2`, for which the inhibition is 95%.

The same assay, now with this note: recombinant PTPN5, DiFMUP fluorescence phosphatase assay; at 50 µM; enzyme 87 ng/mL; DTT 5 mM; active compounds read high.
Take `CC(C)(C)NC(=O)CCN(/N=C/c1cc(C(=O)O)ccc1O)C1=NS(=O)(=O)c2ccccc21`: the inhibition is 30%.

Turning to `OO.OO.[K+].[O]=[V].c1cnc2c(c1)ccc1cccnc12`, the inhibition was 72%.

Consider `Cc1ccc2nc(-c3cc(N=Cc4cc(C(=O)O)ccc4O)ccc3O)[nH]c2c1`, for which the inhibition is 53%.

`O=C(O)c1ccc(O)c(/C=N/N(CCO)C2=NS(=O)(=O)c3ccccc32)c1`: the inhibition was 43%.

On to `OO.OO.[K+].[O]=[V].c1ccc(-c2ccccn2)nc1`, for which the inhibition is 67%.

Turning to `O=C(O)c1ccc(O)c(C=Nc2ccc3oc(-c4ccc(F)cc4Cl)nc3c2)c1`, the inhibition is 70%.

In the case of `CC(C)C(=O)Nc1ccc(O)cc1C(=O)O`, the inhibition was 29%.

With `O=C([O-])c1ccccn1.OO.OO.[K+].[K+].[O]=[V]`, the inhibition was 90%.

As for `O=C(O)c1ccc(O)c(C=Nc2ccc3oc(-c4cccc(Cl)c4Cl)nc3c2)c1`, the inhibition is 33%.

`COc1ccc(-c2nc3cc(N=Cc4cc(C(=O)O)ccc4O)ccc3o2)cc1`: the inhibition is 83%.

Take `O=C(O)c1ccc(O)cn1.OO.[O]=[V]`: the inhibition was 63%.

Take `O=C(O)c1ccc(O)c(C=Nc2cccc(-c3nc4ccccc4o3)c2)c1`: the inhibition was 38%.

`COc1ccccc1C(=O)Nc1ccc(O)cc1C(=O)O`: the inhibition was 33%.

For the compound `F`, the inhibition is 91%.

In the case of `O=C(O)c1ccc([O-])cn1.OO.OO.[K+].[K+].[O]=[V]`, the inhibition is 90%.

Staying with this assay, now noted: recombinant PTPN5, DiFMUP fluorescence phosphatase assay; dose 33 (unit in doubt); enzyme 28.9 ng/mL; DTT 1 mM; active compounds read high.
`[NH-]CO.[NH-]CO.[NH-]CO.[NH-]CO.[O]=[V][O][V]=[O]`: the inhibition is 43%.

The same assay, now with this note: recombinant PTPN5, DiFMUP fluorescence phosphatase assay; dose 200 (unit in doubt); enzyme 20 ng/mL; DTT 1 mM; active compounds read high.
For the compound `O=P(O)(O)OP(=O)(O)O`, the inhibition is 31.6%.

Regarding `CCn1nc(/C=C/c2ccccc2)[n+](=O)c2c(=O)n(C)c(=O)[nH]c21`, the inhibition is 54%.

With `Cn1nc(/C=C/c2ccccc2)nc2c(=O)n(C)c(=O)nc1-2`, the inhibition was 70%.

Regarding `CCn1nc(-c2ccc(Cl)cc2)nc2c(=O)n(C)c(=O)nc1-2`, the inhibition is 67.5%.

With `Cn1c(=O)[nH]c2c(c1=O)[n+](=O)c(/C=C/c1ccccc1)nn2C`, the inhibition was 52%.

Consider `CCCCOC(OCCCC)(OCCCC)OCCCC`, for which the inhibition is 99.4%.
